In the supplement of paper PMC10307832:

Columns and labels:
Assay in all cases: relative viability (nuclei count vs DMSO), 5 days (fraction); higher = more cells survive
[1] = tested on: ChaGo-K-1
Outline: (§1)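 Relative viability equals treated-well nuclei counts divided by vehicle-well nuclei counts. Counts came from 4× images of lung cancer cell lines grown in 1536-well plates for 5 days after pin-tool dosing on the day after seeding. Dosing used one drug alone or a fixed anchor-drug dose plus five library-drug doses (not always all listed) in √10 steps, and values are medians of duplicate plates.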

[2] = tested on: EKVX
Outline: as §1

[3] = tested on: EMC-BAC-2
Outline: as §1

[4] = tested on: EPLC-272H
Outline: as §1

[5] = tested on: HCC-78
Outline: as §1

[6] = tested on: HCC-827
Outline: as §1

[7] = tested on: LCLC-103H
Outline: as §1

[8] = tested on: LK-2
Outline: as §1

[9] = tested on: LU99A
Outline: as §1

[10] = tested on: NCI-H1563
Outline: as §1

[11] = tested on: NCI-H1666
Outline: as §1

[12] = tested on: NCI-H1975
Outline: as §1

[13] = tested on: NCI-H2126
Outline: as §1

[14] = tested on: NCI-H2342
Outline: as §1

[15] = tested on: NCI-H23
Outline: as §1

[16] = tested on: NCI-H2405
Outline: as §1

[17] = tested on: NCI-H322M
Outline: as §1

[18] = tested on: PC-14
Outline: as §1

[19] = tested on: RERF-LC-KJ
Outline: as §1

[20] = tested on: SK-LU-1
Outline: as §1

[21] = tested on: SW 1573
Outline: as §1

[22] = tested on: SW 900
Outline: as §1

Nc1ccn([C@@H]2O[C@H](CO)[C@@H](O)[C@@H]2O)c(=O)n1 [Cytarabine] + COc1cccc2cc(-c3nc([C@H]4CC[C@H](C(=O)O)CC4)n4ncnc(N)c34)[nH]c12 [OSI-027] (partner 0.5 µM)
relative viability ([1]; first compound 0.005 µM): 0.465 | relative viability ([1]; first compound 0.01581 µM): 0.353 | relative viability ([1]; first compound 0.05 µM): 0.247 | relative viability ([1]; first compound 0.1581 µM): 0.165 | relative viability ([1]; first compound 0.5 µM): 0.212 | relative viability ([2]; first compound 0.005 µM): 0.573 | relative viability ([2]; first compound 0.01581 µM): 0.499 | relative viability ([2]; first compound 0.05 µM): 0.635 | relative viability ([2]; first compound 0.1581 µM): 0.37 | relative viability ([2]; first compound 0.5 µM): 0.22 | relative viability ([3]; first compound 0.005 µM): 0.413 | relative viability ([3]; first compound 0.01581 µM): 0.353 | relative viability ([3]; first compound 0.05 µM): 0.312 | relative viability ([3]; first compound 0.1581 µM): 0.27 | relative viability ([3]; first compound 0.5 µM): 0.22 | relative viability ([4]; first compound 0.005 µM): 0.268 | relative viability ([4]; first compound 0.01581 µM): 0.28 | relative viability ([4]; first compound 0.05 µM): 0.214 | relative viability ([4]; first compound 0.1581 µM): 0.189 | relative viability ([4]; first compound 0.5 µM): 0.182 | relative viability ([5]; first compound 0.005 µM): 0.368 | relative viability ([5]; first compound 0.01581 µM): 0.349 | relative viability ([5]; first compound 0.05 µM): 0.314 | relative viability ([5]; first compound 0.1581 µM): 0.242 | relative viability ([5]; first compound 0.5 µM): 0.258 | relative viability ([6]; first compound 0.005 µM): 0.467 | relative viability ([6]; first compound 0.01581 µM): 0.348 | relative viability ([6]; first compound 0.05 µM): 0.265 | relative viability ([6]; first compound 0.1581 µM): 0.175 | relative viability ([6]; first compound 0.5 µM): 0.159 | relative viability ([7]; first compound 0.005 µM): 0.412 | relative viability ([7]; first compound 0.01581 µM): 0.411 | relative viability ([7]; first compound 0.05 µM): 0.511 | relative viability ([7]; first compound 0.1581 µM): 0.418 | relative viability ([7]; first compound 0.5 µM): 0.473 | relative viability ([8]; first compound 0.005 µM): 0.194 | relative viability ([8]; first compound 0.01581 µM): 0.175 | relative viability ([8]; first compound 0.05 µM): 0.205 | relative viability ([8]; first compound 0.1581 µM): 0.156 | relative viability ([8]; first compound 0.5 µM): 0.154 | relative viability ([9]; first compound 0.005 µM): 0.287 | relative viability ([9]; first compound 0.01581 µM): 0.271 | relative viability ([9]; first compound 0.05 µM): 0.288 | relative viability ([9]; first compound 0.1581 µM): 0.288 | relative viability ([9]; first compound 0.5 µM): 0.281 | relative viability ([10]; first compound 0.005 µM): 0.691 | relative viability ([10]; first compound 0.01581 µM): 0.797 | relative viability ([10]; first compound 0.05 µM): 0.773 | relative viability ([10]; first compound 0.1581 µM): 0.583 | relative viability ([10]; first compound 0.5 µM): 0.628 | relative viability ([11]; first compound 0.005 µM): 0.81 | relative viability ([11]; first compound 0.01581 µM): 0.729 | relative viability ([11]; first compound 0.05 µM): 0.798 | relative viability ([11]; first compound 0.1581 µM): 0.455 | relative viability ([11]; first compound 0.5 µM): 0.511 | relative viability ([12]; first compound 0.005 µM): 0.532 | relative viability ([12]; first compound 0.01581 µM): 0.775 | relative viability ([12]; first compound 0.05 µM): 0.917 | relative viability ([12]; first compound 0.1581 µM): 0.6 | relative viability ([12]; first compound 0.5 µM): 0.315 | relative viability ([13]; first compound 0.005 µM): 0.62 | relative viability ([13]; first compound 0.01581 µM): 0.626 | relative viability ([13]; first compound 0.05 µM): 0.544 | relative viability ([13]; first compound 0.1581 µM): 0.533 | relative viability ([13]; first compound 0.5 µM): 0.45 | relative viability ([14]; first compound 0.005 µM): 0.511 | relative viability ([14]; first compound 0.01581 µM): 0.591 | relative viability ([14]; first compound 0.05 µM): 0.511 | relative viability ([14]; first compound 0.1581 µM): 0.549 | relative viability ([14]; first compound 0.5 µM): 0.459 | relative viability ([15]; first compound 0.005 µM): 0.582 | relative viability ([15]; first compound 0.01581 µM): 0.502 | relative viability ([15]; first compound 0.05 µM): 0.507 | relative viability ([15]; first compound 0.1581 µM): 0.272 | relative viability ([15]; first compound 0.5 µM): 0.161 | relative viability ([16]; first compound 0.005 µM): 0.62 | relative viability ([16]; first compound 0.01581 µM): 0.558 | relative viability ([16]; first compound 0.05 µM): 0.434 | relative viability ([16]; first compound 0.1581 µM): 0.394 | relative viability ([16]; first compound 0.5 µM): 0.325 | relative viability ([17]; first compound 0.005 µM): 0.455 | relative viability ([17]; first compound 0.01581 µM): 0.392 | relative viability ([17]; first compound 0.05 µM): 0.325 | relative viability ([17]; first compound 0.1581 µM): 0.377 | relative viability ([17]; first compound 0.5 µM): 0.269 | relative viability ([18]; first compound 0.005 µM): 0.691 | relative viability ([18]; first compound 0.01581 µM): 0.455 | relative viability ([18]; first compound 0.05 µM): 0.71 | relative viability ([18]; first compound 0.1581 µM): 0.166 | relative viability ([18]; first compound 0.5 µM): 0.115 | relative viability ([19]; first compound 0.005 µM): 0.461 | relative viability ([19]; first compound 0.01581 µM): 0.477 | relative viability ([19]; first compound 0.05 µM): 0.5 | relative viability ([19]; first compound 0.1581 µM): 0.391 | relative viability ([19]; first compound 0.5 µM): 0.297 | relative viability ([20]; first compound 0.005 µM): 0.275 | relative viability ([20]; first compound 0.01581 µM): 0.294 | relative viability ([20]; first compound 0.05 µM): 0.297 | relative viability ([20]; first compound 0.1581 µM): 0.193 | relative viability ([20]; first compound 0.5 µM): 0.199 | relative viability ([21]; first compound 0.005 µM): 0.735 | relative viability ([21]; first compound 0.01581 µM): 0.49 | relative viability ([21]; first compound 0.05 µM): 0.466 | relative viability ([21]; first compound 0.1581 µM): 0.131 | relative viability ([21]; first compound 0.5 µM): 0.0871 | relative viability ([22]; first compound 0.005 µM): 0.396 | relative viability ([22]; first compound 0.01581 µM): 0.34 | relative viability ([22]; first compound 0.05 µM): 0.335 | relative viability ([22]; first compound 0.1581 µM): 0.145 | relative viability ([22]; first compound 0.5 µM): 0.136
